According to patent publication USRE47739E1, “2-(pyridin-2-ylamino)-pyrido[2,3-D]pyrimidin-7-ones” (Warner-Lambert Company LLC, priority 2002, dated 2019):
pIC50: −log10 of the molar value. Counter-ions that a name gives are not always drawn.

Experiments:
Cdk4/Cyclin D = Cdk4/Cyclin D (Homo sapiens, UniProt P11802); test: Assay for Inhibition of Cdk4/Cyclin D; type: biochemical; settings: 25 μM ATP, retinoblastoma protein substrate, 25° C., 15 minutes
Experimental: (§1) The assays were carried out as described below.
Assay for Inhibition of Cdk4/Cyclin D
The Cdk4 enzyme assay for IC50 determination and kinetic evaluation is performed as follows. 96-well filter plates (Millipore MADVN6550) are used. […] Buffer A containing excess EDTA was used to determine the level of background ^32P in the absence of enzyme activity. All components except the ATP are added to the wells, and the plate is placed on a plate mixer for 2 minutes. The reaction is started by adding [^32P]ATP, and the plate is incubated at 25° C. for 15 minutes. The reaction is terminated by addition of 0.1 mL 20% trichloroacetic acid (TCA). The plate is kept at 4° C. for at least 1 hour to allow the substrate to precipitate. The wells are then washed five times with 0.2 mL 10% TCA, and ^32P incorporation is determined with a beta plate counter (Wallac Inc., Gaithersburg, Md.).

Cdk2/Cyclin A = Cdk2/Cyclin A (Homo sapiens, UniProt P24941); test: Assay for Inhibition of Cdk2/Cyclin A; type: biochemical; settings: 12 mM ATP (so in the source), retinoblastoma protein substrate, 25° C., 15 minutes
Experimental: as §1
Assay for Inhibition of Cdk2/Cyclin A
Cdk2 enzyme assays for IC50 determinations and kinetic evaluation are performed as follows. 96-well filter plates (Millipore MADVN6550) are used. […] All components except the ATP are added to the wells, and the plate is placed on a plate mixer for 2 minutes. The reaction is initiated by addition of [^32P]ATP, and the plate is incubated at 25° C. for 15 minutes. The reaction is terminated by addition of 0.1 mL 20% TCA. The plate is kept at 4° C. for at least 1 hour to allow the substrate to precipitate. The wells are then washed five times with 0.2 mL 10% TCA, and ^32P incorporation is determined with a beta plate counter (Wallac Inc., Gaithersburg, Md.).

[1] = molecular target: FGF receptor (FGFr) tyrosine kinase (Homo sapiens, UniProt P11362); test: Assay for Inhibition of FGFr; type: biochemical; settings: 50 μM ATP, Poly (4:1) glutamate-tyrosine substrate, 25° C.
Sequence of FGF receptor (FGFr) tyrosine kinase (P11362 22-822): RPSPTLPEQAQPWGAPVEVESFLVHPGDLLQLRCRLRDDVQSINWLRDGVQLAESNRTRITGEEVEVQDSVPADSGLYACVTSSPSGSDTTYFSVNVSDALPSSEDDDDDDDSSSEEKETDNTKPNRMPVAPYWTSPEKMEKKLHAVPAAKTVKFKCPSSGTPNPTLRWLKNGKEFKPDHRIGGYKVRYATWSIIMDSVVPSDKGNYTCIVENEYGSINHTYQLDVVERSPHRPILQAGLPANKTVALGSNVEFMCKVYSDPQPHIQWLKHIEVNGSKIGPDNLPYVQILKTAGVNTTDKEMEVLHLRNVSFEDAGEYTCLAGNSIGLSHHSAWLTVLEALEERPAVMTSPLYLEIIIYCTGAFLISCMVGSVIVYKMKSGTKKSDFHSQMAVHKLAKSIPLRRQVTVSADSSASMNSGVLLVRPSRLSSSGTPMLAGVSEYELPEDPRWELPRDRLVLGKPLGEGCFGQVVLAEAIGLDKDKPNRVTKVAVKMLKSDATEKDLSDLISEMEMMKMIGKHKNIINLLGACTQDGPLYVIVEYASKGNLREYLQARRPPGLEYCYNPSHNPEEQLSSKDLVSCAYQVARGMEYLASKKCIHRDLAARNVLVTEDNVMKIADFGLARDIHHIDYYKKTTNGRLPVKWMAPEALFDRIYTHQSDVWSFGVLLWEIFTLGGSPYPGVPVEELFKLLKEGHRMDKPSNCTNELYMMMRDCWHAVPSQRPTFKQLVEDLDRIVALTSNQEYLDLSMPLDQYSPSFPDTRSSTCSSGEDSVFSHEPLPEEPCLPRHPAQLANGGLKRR
Experimental: as §1
Assay for Inhibition of FGFr
For FGF receptor (FGFr) tyrosine kinase assays 96-well plates (100 μL/incubation/well), and conditions are optimized to measure the incorporation of ^32P from [γ^32P]ATP into a glutamate-tyrosine co-polymer substrate. Briefly, to each well is added 82.5 μL incubation buffer B (25 mM Hepes (pH 7.0), 150 mM NaCl, 0.1% Triton X-100, 0.2 mM PMSF, 0.2 mM Na3VO4, 10 mM MnCl2) and 750 μg/mL Poly (4:1) glutamate-tyrosine followed by 2.5 μL of the test compound in buffer B and 5 μL of a 7.5 μg/μL FGFr solution to initiate the reaction. Following a 10-minute incubation at 25° C., […] [γ^32P]ATP (0.4 μCi plus 50 μM ATP) is added to each well, and samples are incubated for an additional 10 minutes at 25° C. The reaction is terminated by the addition of 100 μL 30% trichloroacetic acid (TCA) containing 20 mM sodium pyrophosphate and precipitation of material onto glass fiber mats (Wallac). […] Nonspecific activity is defined as radioactivity retained on the filters following incubation of samples with buffer alone (no enzyme). Specific enzymatic activity (enzyme plus buffer) is defined as total activity minus nonspecific activity.

Sequence of Cdk4/Cyclin D (P11802 whole entry, species assumed): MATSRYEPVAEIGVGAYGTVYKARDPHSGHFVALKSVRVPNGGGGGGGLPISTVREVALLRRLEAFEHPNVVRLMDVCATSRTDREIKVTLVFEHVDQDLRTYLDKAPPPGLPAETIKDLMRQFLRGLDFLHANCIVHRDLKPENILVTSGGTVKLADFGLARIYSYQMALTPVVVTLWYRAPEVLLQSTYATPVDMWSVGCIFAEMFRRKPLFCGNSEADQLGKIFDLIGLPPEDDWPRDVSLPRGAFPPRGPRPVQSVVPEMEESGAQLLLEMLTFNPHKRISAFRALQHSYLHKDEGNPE
Sequence of Cdk4/Cyclin D (P24385 whole entry partner, species assumed): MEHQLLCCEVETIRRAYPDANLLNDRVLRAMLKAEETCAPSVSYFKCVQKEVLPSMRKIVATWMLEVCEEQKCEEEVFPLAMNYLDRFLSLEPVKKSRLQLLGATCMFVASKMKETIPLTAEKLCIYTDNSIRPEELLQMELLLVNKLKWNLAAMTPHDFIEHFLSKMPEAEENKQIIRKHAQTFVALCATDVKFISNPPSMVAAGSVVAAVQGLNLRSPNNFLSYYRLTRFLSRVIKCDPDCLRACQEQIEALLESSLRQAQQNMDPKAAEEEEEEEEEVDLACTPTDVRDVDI

| Molecule | pIC50 (Cdk4/Cyclin D) | pIC50 (Cdk2/Cyclin A) | pIC50 [1] | melting point |
| --- | --- | --- | --- | --- |
| 8-Cyclopentyl-6-methoxymethyl-2-(5-piperazin-1-yl-pyridin-2-ylamino)-8H-pyrido[2,3-d]pyrimidin-7-one [Example 120] | 7.89 | 5.42 | 5.61 | – |
| CC(=O)c1cc2cnc(Nc3ccc(N4CCNCC4)cn3)nc2n(C2CCCC2)c1=O (as salt: hydrochloride) [Example 33, 6-Acetyl-8-cyclopentyl-2-(5-piperazin-1-yl-pyridin-2-ylamino)-8H-pyrido[2.3-d]pyrimidin-7-one hydrochloride] | – | – | – | > 300 °C |
| O=c1ccc2cnc(Nc3ccc(N4CCNCC4)cn3)nc2n1C1CCCC1 (as salt: hydrochloride) [Example 59, 8-cyclopentyl-2-(5-piperazin-1-yl-pyridin-2-ylamino)-8H-pyrido[2,3-d]pyrimidin-7-one] | – | – | – | 213 to 215 °C |
| O=c1ccc2cnc(Nc3ccc(N4CCNCC4)cn3)nc2n1C1CCCCC1 (as salt: hydrochloride) [Example 61, 8-cyclohexyl-2-(5-piperazin-1-yl-pyridin-2-ylamino)-8H-pyrido[2,3-d]pyrimidin-7-one] | – | – | – | 228 to 230 °C |
| O=c1ccc2cnc(Nc3ccc(N4CCNCC4)cn3)nc2n1C1CC1 (as salt: hydrochloride) [Example 64, 8-cyclopropyl-2-(5-piperazin-1-yl-pyridin-2-ylamino)-8H-pyrido[2,3-d]pyrimidin-7-one] | – | – | – | > 300 °C |
| O=c1ccc2cnc(Nc3ccccc3)nc2n1C1CCCC1 [1′, reference compound] | – | 7.68 | – | – |
| O=c1ccc2cnc(Nc3ccccn3)nc2n1C1CCCC1 [Example 1, 8-Cyclopentyl-2-(pyridin-2-ylamino)-8H-pyrido[2,3-d]pyrimidin-7-one] | 6.84 | 5.30 | < 5.30 | – |
| O=c1c(Br)cc2cnc(Nc3ccc(N4CCNCC4)cn3)nc2n1C1CCCC1 [Example 3, 6-Bromo-8-cyclopentyl-2-(5-piperazin-1-yl-pyridin-2-ylamino)-8H-pyrido [2,3-d]pyrimidin-7-one hydrochloride] | 7.80 | 5.22 | 5.99 | – |
| Cc1cc2cnc(Nc3ccc(N4CCNCC4)cn3)nc2n(C2CCCC2)c1=O [Example 20, 8-Cyclopentyl-6-methyl-2-(5-piperazin-1-yl-pyridin-2-ylamino)-8H-pyrido[2,3-d]pyrimidin-7-one hydrochloride] | 7.57 | 5.39 | 5.79 | – |
| O=c1c(Cc2ccccc2)cc2cnc(Nc3ccc(N4CCNCC4)cn3)nc2n1C1CCCC1 [Example 24, 6-Benzyl-8-cyclopentyl-2-(5-piperazin-1-yl-pyridin-2-ylamino)-8H-pyrido[2,3-d]pyrimidin-7-one hydrochloride] | 8.30 | < 5.30 | < 5.30 | – |
| Cc1c(Br)c(=O)n(C2CCCC2)c2nc(Nc3ccccn3)ncc12 [Example 37, 6-bromo-8-cyclopentyl-5-methyl-2-(pyridin-2-ylamino)-8H-pyrido[2,3-d]pyrimidin-7-one] | < 5.30 | – | < 5.30 | 267 to 268 °C |
| Cc1c(I)c(=O)n(C2CCCC2)c2nc(Nc3ccc(N4CCNCC4)cn3)ncc12 [Example 50, 8-Cyclopentyl-6-iodo-5-methyl-2-(5-piperazin-1-yl-pyridin-2-ylamino)-8H-pyrido[2,3-d]pyrimidin-7-one] | 6.84 | < 5.30 | < 5.30 | > 240 °C |
| CCc1cc2cnc(Nc3ccc(N4CCC(O)CC4)cn3)nc2n(C2CCCC2)c1=O [Example 51, 8-Cyclopentyl-6-ethyl-2-(4-hydroxy-3,4,5,6-tetrahydro-2H-[1,3′]bipyridinyl-6′-ylamino)-8H-pyrido [2,3-d]pyrimidin-7-one] | 6.87 | < 5.30 | – | – |
| COCCN(CCOC)c1ccc(Nc2ncc3c(C)c(Br)c(=O)n(C4CCCC4)c3n2)nc1 [Example 54, 2-{5-[Bis-(2-methoxy-ethyl)-amino]-pyridin-2-ylamino}-6-bromo-8-cyclopentyl-5-methyl-8H-pyrido[2,3-d]pyrimidin-7-one] | 5.96 | – | < 5.30 | 94 to 95 °C |
| O=c1ccc2cnc(Nc3ccc(N4CCNCC4)cn3)nc2n1C1CCCC1 [Example 59, 8-cyclopentyl-2-(5-piperazin-1-yl-pyridin-2-ylamino)-8H-pyrido[2,3-d]pyrimidin-7-one] | 7.82 | 5.60 | 5.82 | – |
| O=c1ccc2cnc(Nc3ccc(N4CCNCC4)cn3)nc2n1C1CCCCC1 [Example 61, 8-cyclohexyl-2-(5-piperazin-1-yl-pyridin-2-ylamino)-8H-pyrido[2,3-d]pyrimidin-7-one] | 7.89 | 6.08 | 5.86 | – |
| Nc1cccc(Nc2ncc3cc(Br)c(=O)n(C4CCCC4)c3n2)n1 [Example 65, 6-Bromo-8-cyclopentyl-2-(pyridin-2,6-yldiamino)-8H-pyrido[2,3-d]pyrimidin-7-one] | 6.37 | 5.48 | – | > 300 °C |
| Cc1c(Br)c(=O)n(C2CCCC2)c2nc(Nc3cccc(N)n3)ncc12 [Example 66, 2-(6-amino-pyridin-2-ylamino)-6-bromo-8-cyclopentyl-5-methyl-8H-pyrido[2,3-d]pyrimidin-7-one] | 6.12 | < 5.30 | – | – |
| Cc1c(Br)c(=O)n(C2CCCC2)c2nc(Nc3ccc(N4CCN(C)CC4)cn3)ncc12 [Example 70, 6-Bromo-8-cyclopentyl-5-methyl-2-[5-(4-methyl-piperazin-1-yl)-pyridin-2-ylamino]-8H-pyrido[2,3-d]pyrimidin-7-one] | 6.87 | – | < 5.30 | 278 to 280 °C (dec.) |
| CCOCCc1cc2cnc(Nc3ccc(N4CCNCC4)cn3)nc2n(C2CCCC2)c1=O [Example 108, 8-Cyclopentyl-6-(2-ethoxy-ethyl)-2-(5-piperazin-1-yl-pyridin-2-ylamino)-8H-pyrido[2,3-d]pyrimidin-7-one] | 6.91 | – | < 5.30 | – |
| COCCOCc1cc2cnc(Nc3ccc(N4CCNCC4)cn3)nc2n(C2CCCC2)c1=O [Example 112, 8-Cyclopentyl-6-(2-methoxy-ethoxymethyl)-2-(5-piperazin-1-yl-pyridin-2-ylamino)-8H-pyrido[2,3-d]pyrimidin-7-one] | 7.51 | – | < 5.30 | – |
| CCOCc1cc2cnc(Nc3ccc(N4CCNCC4)cn3)nc2n(C2CCCC2)c1=O [Example 116, 8-Cyclopentyl-6-ethoxymethyl-2-(5-piperazin-1-yl-pyridin-2-ylamino)-8H-pyrido[2,3-d]pyrimidin-7-one] | 7.74 | – | < 5.30 | – |
| CCOCc1cc2cnc(Nc3ccc(N4CCCCC4)cn3)nc2n(C2CCCC2)c1=O [Example 124, 8-Cyclopentyl-6-ethoxymethyl-2-(3,4,5,6-tetrahydro-2H-[1,3]bipyridinyl-6′-ylamino)-8H-pyrido[2,3-d]pyrimidin-7-one] | 6.26 | < 5.30 | – | – |
| CCOCc1cc2cnc(Nc3ccc(N4CCOCC4)cn3)nc2n(C2CCCC2)c1=O [Example 125, 8-Cyclopentyl-6-ethoxymethyl-2-(5-morpholin-4-yl-pyridin-2-ylamino)-8H-pyrido[2,3-d]pyrimidin-7-one] | 7.74 | < 5.30 | < 5.30 | – |
| CC(=O)c1c(C)c2cnc(Nc3ccc(N4CC(C)OC(C)C4)cn3)nc2n(C2CCCC2)c1=O (centres unmarked) [Example 130, 6-Acetyl-8-cyclopentyl-2-[5-(2,6-dimethyl-morpholin-4-yl)-pyridin-2-ylamino]-5-methyl-8H-pyrido[2,3-d]pyrimidin-7-one] | 7.52 | – | < 5.30 | – |
